Assay results published in patent publication US8192962B2, “Processes for detecting toxic substances” (Daikin Industries, Ltd., priority 2001, dated 2012).

Tested on: Metabolism protein genes
Assay: DNA chip mRNA expression in yeast, metabolism protein genes (Table 7)
Format: cell-based, Saccharomyces cerevisiae S288C
Outline: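 Whole-genome yeast DNA chip hybridization (65° C., >12 h) of Cy-labeled cDNA from S288C cells exposed 2 h at 25° C. to a sub-lethal toxicant dose in YPD; value is intensity relative to chemical-free control.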

COc1cc(CNC(=O)CCCCC=CC(C)C)ccc1O [(12), 8-methyl-N-vanillyl-6-nonenamide]
0.4: The level of expressed mRNA in the presence of chemical substance/The level of expressed mRNA in the absence of chemical substance (yeast gene YDR380W) | level of expressed mRNA in the presence/in the absence of chemical substance (yeast gene YDR400W)
1.7: The level of expressed mRNA in the presence of chemical substance/The level of expressed mRNA in the absence of chemical substance (yeast gene YBR256C) | The level of expressed mRNA in the presence of chemical substance/The level of expressed mRNA in the absence of chemical substance (yeast gene YCL009C) | The level of expressed mRNA in the presence of chemical substance/The level of expressed mRNA in the absence of chemical substance (yeast gene YER026C) | The level of expressed mRNA in the presence of chemical substance/The level of expressed mRNA in the absence of chemical substance (yeast gene YER053C) | The level of expressed mRNA in the presence of chemical substance/The level of expressed mRNA in the absence of chemical substance (yeast gene YFR047C) | The level of expressed mRNA in the presence of chemical substance/The level of expressed mRNA in the absence of chemical substance (yeast gene YJL068C)
1.4: level of expressed mRNA in the presence/in the absence of chemical substance (yeast gene YDR050C) | level of expressed mRNA in the presence/in the absence of chemical substance (yeast gene YDR345C) | The level of expressed mRNA in the presence of chemical substance/The level of expressed mRNA in the absence of chemical substance (yeast gene YIL155C) | The level of expressed mRNA in the presence of chemical substance/The level of expressed mRNA in the absence of chemical substance (yeast gene YIR034C) | The level of expressed mRNA in the presence of chemical substance/The level of expressed mRNA in the absence of chemical substance (yeast gene YJR137C)
0.6: level of expressed mRNA in the presence/in the absence of chemical substance (yeast gene YDR408C) | level of expressed mRNA in the presence/in the absence of chemical substance (yeast gene YGL012W) | The level of expressed mRNA in the presence of chemical substance/The level of expressed mRNA in the absence of chemical substance (yeast gene YGL126W) | The level of expressed mRNA in the presence of chemical substance/The level of expressed mRNA in the absence of chemical substance (yeast gene YHR137W) | level of expressed mRNA in the presence/in the absence of chemical substance (yeast gene YJL121C)
1.5: The level of expressed mRNA in the presence of chemical substance/The level of expressed mRNA in the absence of chemical substance (yeast gene YGR037C) | The level of expressed mRNA in the presence of chemical substance/The level of expressed mRNA in the absence of chemical substance (yeast gene YGR256W) | The level of expressed mRNA in the presence of chemical substance/The level of expressed mRNA in the absence of chemical substance (yeast gene YHR174W) | The level of expressed mRNA in the presence of chemical substance/The level of expressed mRNA in the absence of chemical substance (yeast gene YIL045W)
0.8: level of expressed mRNA in the presence/in the absence of chemical substance (yeast gene YBR003W) | level of expressed mRNA in the presence/in the absence of chemical substance (yeast gene YBR020W) | The level of expressed mRNA in the presence of chemical substance/The level of expressed mRNA in the absence of chemical substance (yeast gene YBR023C) | level of expressed mRNA in the presence/in the absence of chemical substance (yeast gene YCR010C) | level of expressed mRNA in the presence/in the absence of chemical substance (yeast gene YDR073W) | level of expressed mRNA in the presence/in the absence of chemical substance (yeast gene YDR483W) | The level of expressed mRNA in the presence of chemical substance/The level of expressed mRNA in the absence of chemical substance (yeast gene YER069W) | The level of expressed mRNA in the presence of chemical substance/The level of expressed mRNA in the absence of chemical substance (yeast gene YGL248W) | level of expressed mRNA in the presence/in the absence of chemical substance (yeast gene YGR096W) | The level of expressed mRNA in the presence of chemical substance/The level of expressed mRNA in the absence of chemical substance (yeast gene YGR194C)
0.7: The level of expressed mRNA in the presence of chemical substance/The level of expressed mRNA in the absence of chemical substance (yeast gene YCL064C) | The level of expressed mRNA in the presence of chemical substance/The level of expressed mRNA in the absence of chemical substance (yeast gene YDR019C) | The level of expressed mRNA in the presence of chemical substance/The level of expressed mRNA in the absence of chemical substance (yeast gene YGL022W) | level of expressed mRNA in the presence/in the absence of chemical substance (yeast gene YGR191W) | level of expressed mRNA in the presence/in the absence of chemical substance (yeast gene YHR123W) | The level of expressed mRNA in the presence of chemical substance/The level of expressed mRNA in the absence of chemical substance (yeast gene YIL167W) | The level of expressed mRNA in the presence of chemical substance/The level of expressed mRNA in the absence of chemical substance (yeast gene YJL088W)
1.9: The level of expressed mRNA in the presence of chemical substance/The level of expressed mRNA in the absence of chemical substance (yeast gene YGR244C)
4.3: The level of expressed mRNA in the presence of chemical substance/The level of expressed mRNA in the absence of chemical substance (yeast gene YFL014W)
1.0: level of expressed mRNA in the presence/in the absence of chemical substance (yeast gene YER081W) | The level of expressed mRNA in the presence of chemical substance/The level of expressed mRNA in the absence of chemical substance (yeast gene YFL031W) | The level of expressed mRNA in the presence of chemical substance/The level of expressed mRNA in the absence of chemical substance (yeast gene YFL056C) | The level of expressed mRNA in the presence of chemical substance/The level of expressed mRNA in the absence of chemical substance (yeast gene YFL057C) | level of expressed mRNA in the presence/in the absence of chemical substance (yeast gene YGR204W) | The level of expressed mRNA in the presence of chemical substance/The level of expressed mRNA in the absence of chemical substance (yeast gene YJL099W) | level of expressed mRNA in the presence/in the absence of chemical substance (yeast gene YJL216C) | level of expressed mRNA in the presence/in the absence of chemical substance (yeast gene YJR077C)
2.8: The level of expressed mRNA in the presence of chemical substance/The level of expressed mRNA in the absence of chemical substance (yeast gene YDL174C)
1.3: The level of expressed mRNA in the presence of chemical substance/The level of expressed mRNA in the absence of chemical substance (yeast gene YBR029C) | The level of expressed mRNA in the presence of chemical substance/The level of expressed mRNA in the absence of chemical substance (yeast gene YCR098C) | level of expressed mRNA in the presence/in the absence of chemical substance (yeast gene YDR178W) | The level of expressed mRNA in the presence of chemical substance/The level of expressed mRNA in the absence of chemical substance (yeast gene YDR502C) | level of expressed mRNA in the presence/in the absence of chemical substance (yeast gene YER120W) | The level of expressed mRNA in the presence of chemical substance/The level of expressed mRNA in the absence of chemical substance (yeast gene YER178W) | The level of expressed mRNA in the presence of chemical substance/The level of expressed mRNA in the absence of chemical substance (yeast gene YGL209W) | The level of expressed mRNA in the presence of chemical substance/The level of expressed mRNA in the absence of chemical substance (yeast gene YGR282C) | The level of expressed mRNA in the presence of chemical substance/The level of expressed mRNA in the absence of chemical substance (yeast gene YJL031C) | level of expressed mRNA in the presence/in the absence of chemical substance (yeast gene YJL167W)
0.5: level of expressed mRNA in the presence/in the absence of chemical substance (yeast gene YCR034W) | level of expressed mRNA in the presence/in the absence of chemical substance (yeast gene YDR123C) | level of expressed mRNA in the presence/in the absence of chemical substance (yeast gene YHR210C)
0.9: The level of expressed mRNA in the presence of chemical substance/The level of expressed mRNA in the absence of chemical substance (yeast gene YBR222C) | The level of expressed mRNA in the presence of chemical substance/The level of expressed mRNA in the absence of chemical substance (yeast gene YCR048W) | level of expressed mRNA in the presence/in the absence of chemical substance (yeast gene YDR277C) | level of expressed mRNA in the presence/in the absence of chemical substance (yeast gene YDR284C) | The level of expressed mRNA in the presence of chemical substance/The level of expressed mRNA in the absence of chemical substance (yeast gene YDR497C) | level of expressed mRNA in the presence/in the absence of chemical substance (yeast gene YER015W) | The level of expressed mRNA in the presence of chemical substance/The level of expressed mRNA in the absence of chemical substance (yeast gene YER096W) | level of expressed mRNA in the presence/in the absence of chemical substance (yeast gene YFL011W) | level of expressed mRNA in the presence/in the absence of chemical substance (yeast gene YGL115W) | The level of expressed mRNA in the presence of chemical substance/The level of expressed mRNA in the absence of chemical substance (yeast gene YGR055W) | level of expressed mRNA in the presence/in the absence of chemical substance (yeast gene YGR288W) | level of expressed mRNA in the presence/in the absence of chemical substance (yeast gene YHR025W) | The level of expressed mRNA in the presence of chemical substance/The level of expressed mRNA in the absence of chemical substance (yeast gene YHR111W) | level of expressed mRNA in the presence/in the absence of chemical substance (yeast gene YIL006W)
1.6: The level of expressed mRNA in the presence of chemical substance/The level of expressed mRNA in the absence of chemical substance (yeast gene YCL018W)
1.1: The level of expressed mRNA in the presence of chemical substance/The level of expressed mRNA in the absence of chemical substance (yeast gene YAL012W) | level of expressed mRNA in the presence/in the absence of chemical substance (yeast gene YBR011C) | The level of expressed mRNA in the presence of chemical substance/The level of expressed mRNA in the absence of chemical substance (yeast gene YDR516C) | level of expressed mRNA in the presence/in the absence of chemical substance (yeast gene YEL063C) | level of expressed mRNA in the presence/in the absence of chemical substance (yeast gene YGL205W) | The level of expressed mRNA in the presence of chemical substance/The level of expressed mRNA in the absence of chemical substance (yeast gene YIL107C) | The level of expressed mRNA in the presence of chemical substance/The level of expressed mRNA in the absence of chemical substance (yeast gene YIL154C) | The level of expressed mRNA in the presence of chemical substance/The level of expressed mRNA in the absence of chemical substance (yeast gene YJL172W) | The level of expressed mRNA in the presence of chemical substance/The level of expressed mRNA in the absence of chemical substance (yeast gene YJL219W)
1.2: The level of expressed mRNA in the presence of chemical substance/The level of expressed mRNA in the absence of chemical substance (yeast gene YAL038W) | The level of expressed mRNA in the presence of chemical substance/The level of expressed mRNA in the absence of chemical substance (yeast gene YBR183W) | The level of expressed mRNA in the presence of chemical substance/The level of expressed mRNA in the absence of chemical substance (yeast gene YFL030W) | The level of expressed mRNA in the presence of chemical substance/The level of expressed mRNA in the absence of chemical substance (yeast gene YHR176W) | The level of expressed mRNA in the presence of chemical substance/The level of expressed mRNA in the absence of chemical substance (yeast gene YIR036C)
